Data reported in US10092657B2, “Opsonized β-glucan preparations and methods” (Biothera, Inc., priority 2011, dated 2018).

Columns and labels:
human monocytes [1] = assay: Binding studies on the role of complement proteins in serum, monocytes; type: cell-based
Protocol: Heat-inactivated (HI) serum was prepared by incubating serum in a 56° C. water bath for 30 minutes. […] Treatment of serum with methylamine (MA) was done by incubating serum with 0.67% of methylamine for 2.5 hours at 37° C., followed by three washes with DPBS using Amicon centrifugal filter unit with a 3K MW cut-off (Millipore, Billerica, Mass.). DPBS-treated serum was prepared in the same manner and used as control serum for MA-treated serum. For blocking of factor D in the serum, 166-32 at concentration 20 μg/mL was incubated with serum on ice for 30 minutes, and then used for binding studies. For binding experiments in the presence of EGTA or MgEGTA, serum was incubated with 10 mM EGTA with or without 10 mM MgCl2 for 10 minutes at room temperature. The untreated and EGTA/MgEGTA-treated serum was then used to pre-treat PGG and perform binding studies as described earlier.

human monocytes [2] = assay: Binding of PGG β-glucan after serum pre-treatment, monocytes; type: cell-based; conditions: 100 μg/mL; 10% HI serum; two hours at 37° C.
Protocol: PGG β-glucan at concentration 60-80 mg/mL was incubated with human serum at 1:10 volume ratio for 30 minutes in a 37° C. water bath. The serum-pretreated PGG β-glucan was added to neutrophils at 200 μg/mL or to PBMC at 100 μg/mL resuspended in RPM1 containing either 10% regular autologous serum or 10% HI serum at indicated time and temperature of incubation. Binding was then determined as described previously.
To determine the role of complement proteins in binding, experiments were performed as described above except for using serum containing 10% HI, compstatin-treated or methylamine (MA)-treated, EGTA- or EGTA+MgCl2 (MgEGTA)-treated, or factor D-blocked serum. Heat-inactivated (HI) serum was prepared by incubating serum in a 56° C. water bath for 30 minutes. […] Treatment of serum with methylamine (MA) was done by incubating serum with 0.67% of methylamine for 2.5 hours at 37° C., followed by three washes with DPBS using Amicon centrifugal filter unit with a 3K MW cut-off (Millipore, Billerica, Mass.). DPBS-treated serum was prepared in the same manner and used as control serum for MA-treated serum. For blocking of factor D in the serum, 166-32 at concentration 20 μg/mL was incubated with serum on ice for 30 minutes, and then used for binding studies. […]

human monocytes [3] = assay: Binding of PGG β-glucan to human monocytes within PBMC (BfD IV staining, flow cytometry); type: cell-based
Protocol: Enriched neutrophils or PBMC were resuspended at 1×10^6 cells/mL in RPMI 1640 supplemented with 10% serum. PGG β-glucan at hexose concentrations 100 μg/mL, 200 μg/mL, or 400 μg/mL were added to neutrophils or PBMC and incubated in a 37° C., 5% CO2 humidified incubator for two hours. After incubation, cells were washed twice with FACS buffer (HBSS supplemented with 1% FBS and 0.1% sodium azide) to remove any unbound β-glucan, and subsequently treated with Fc block (Miltenyi Biotec, Auburn, Calif.). […] Cells were then incubated with FITC-conjugated F(ab′)2 goat anti-mouse IgM for 30 minutes at 4° C. and washed once with cold FACS buffer before fixing with 1% paraformaldehyde. In early optimization experiments, neutrophils, monocytes, and T cells were identified by staining with fluorescently labeled anti-CD 15, anti-CD 14, or anti-CD3 Abs, respectively. Events were collected on a LSRII flow cytometer (BD Biosciences, San Jose, Calif.) and analysis was performed using FLOWJO (Tree Star, Ashland, Oreg.). […] Surface binding of DTAF-conjugated β-glucan was subsequently assessed by flow cytometric analysis. […] The experiments to determine binding of PGG β-glucan at 200 μg/mL to neutrophils or at 100 μg/mL to PBMC were performed as described above with the following changes. For determining serum dependency, PGG β-glucan was incubated with neutrophils or PBMC resuspended in RPMI 1640 containing 2%, 5%, or 10% autologous serum at 37° C. for two hours. For time-course experiments, PGG β-glucan at indicated concentrations was incubated with cells resuspended in 10% autologous serum at 37° C. for 10 minutes, 20 minutes, 60 minutes, or 120 minutes. For temperature dependency experiments, PGG β-glucan at indicated concentrations was incubated with cells resuspended in 10% autologous serum for two hours at 4° C., room temperature, or 37° C.

sC5b-9 complex = assay: Measurement of fluid-phase SC5b-9 complex formation in the serum; type: biochemical, human
Protocol: The MicroVue SC5b-9 EIA kit was used to measure activation of the classical and alternative pathways of complement according to the vendor's instruction (Quidel Corp., San Diego, Calif.). Briefly, the serum, untreated or treated was mixed with PBS, Ab-sensitized sheep RBC (SRBC), or 20 units of CVF and added to plate wells pre-coated with anti-sC5b-9 monoclonal antibody. The plate was incubated at 37° C. for 60 minutes, followed by five washes with the provided wash buffer. The plate was then incubated with the provided SC5b-9 Plus Conjugate, which contained horseradish peroxidase-conjugated Ab specific for sC5b-9 at room temperature for 30 minutes. The plate was washed five times, incubated with the substrate for 15 minutes at room temperature to initiate the enzymatic reaction and subsequently quenched with the stop solution. OD450 Was measured using the spectrophotometer SpectraMAX 250. The concentration of fluid phase sC5b-9 present in the samples was determined from the standard curve generated with the provided sC5b-9 standards.

[4] = 2%, 5% or 10% autologous serum, 37° C., two hours

Substance: β(1,6)-[poly-1,3)-D-glucopyranosyl]-poly-β(1,3)-D-glucopyranose [PGG β-glucan]
- Binding in the presence of heat inactivated (HI) serum (human monocytes [1]; 10% HI serum vs regular serum, 100 μg/mL): abrogated
- Average percentage of binding inhibition in HI serum (human monocytes [1]; based on MFI, five donors): 90%
- Range of percentage of binding inhibition in HI serum (human monocytes [1]; based on MFI, five donors): 81-100%
- Extent of rescued binding to cells in HI serum (MFI, percentage of BfD IV positive cells) (human monocytes [2]): minimal
- Minimum concentration of β-glucan detected on the cells by the BfD IV detection system (human monocytes [3]): 100 µg/mL
- Incubation time of maximal binding (human monocytes [3]; 100 μg/mL, 10% serum, 37° C.): 60 to 120 min
- Percentage of serum at which maximal binding occurred (human monocytes [3]; [4]): 10%
- Percentage of serum at which minimum binding occurred (human monocytes [3]; [4]): 2%
- Concentration at which percentage of BfD IV positive cells reached a plateau (human monocytes [3]; 10% autologous serum, 37° C., two hours): 200 µg/mL
- Binding (MFI and percentage of BfD IV positive cells) (human monocytes [3]; 100, 200, 400 μg/mL, 10% autologous serum, 37° C., two hours): bound to both neutrophils and monocytes
- Incubation temperature of maximal binding (human monocytes [3]; two hours at 4° C., room temperature or 37° C., 10% serum): 37 °C
- Formation of terminal complement complexes (fluid phase MAC) in serum treated with the glucan (sC5b-9 complex): did not activate formation of terminal complement complexes
